Where a name gives a salt, the structure may show the parent alone. Read-outs that look alike come from different tables or passages of the source.
Test: Solubility of toremifene citrate in solvent (reference)
Assay type: physicochemical

**Q.** For `CN(C)CCOc1ccc(/C(=C(/CCCl)c2ccccc2)c2ccccc2)cc1` [toremifene citrate], which solubility (0.1 M HCl, simulated gastric fluid, read-out: Solubility in 0.1 M HCl) is on record?
**A.** ~30 µg/mL

**Q.** And the solubility (ethanol, organic solvent or mixture, read-out: Solubility in ethanol)?
**A.** ~3000 µg/mL

Source: patent publication US6887888B2, “Soluble compositions of triphenylethylene antiestrogens” (Orion Corporation, priority 1998, dated 2005)
